Test results: patent publication US12084445B2, “Broad-spectrum carbapenems” (VenatoRx Pharmaceuticals, Inc., priority 2018, dated 2024)

Columns and labels:
Type in all cases: cell-based
[1] = tested on: E. coli ATCC 25922 (wild-type/QC strain); assay: broth microdilution MIC assay, E. coli ATCC 25922; conditions: Escherichia coli, ATCC25922; Table 3; E. coli 25922; read-out: E. coli 25922 MIC
Experimental: (§1) To determine the ability of test compounds to potentiate the inhibition of the growth of bacterial strains, classic cell-based broth microdilution MIC assays were employed. MIC assays are performed according to CLSI methods except where otherwise noted (CLSI, 2011 and CLSI, 2009). The reference strains S. aureus ATCC 29213 (methicillin sensitive), S. aureus ATCC 33591 (methicillin-resistant), E. coli ATCC 25922 (wild-type/QC strain), P. aeruginosa ATCC 27853 (wild-type/QC strain), and the clinical isolate P. aeruginosa PA 8 were used to determine the ability of the exemplary carbapenem compounds to inhibit bacterial growth. An expanded panel of methicillin resistance S. aureus (MRSA) and Pseudomonas was also used to determine the ability of exemplary carbapenem compounds to inhibit bacterial growth across a broader representation of those species. To determine activity in MRSA and in addition to S. aureus ATCC 33591, S. aureus USA 300, USA 400 and USA 600, some of the most common clones found to cause human infection, were also used. To further gauge the impact on the carbapenem compounds due to various resistance mechanisms in Pseudomonas, the following strains were included: P. aeruginosa 35151 (hyper-permeable strain), P. aeruginosa AmexAB-OprM (an efflux pump knockout), and P. aeruginosa PA 3 (a clinical isolate of reduced carbapenem susceptibility). Briefly, cryo-preserved bacterial cultures of clinical strains are streaked for isolation on appropriate agar medium, in this case Mueller Hinton II agar. Following incubation to allow formation of colonies, these plates are sealed with parafilm and stored refrigerated for up to two weeks. For preparation of assay inocula and to ensure low variability, at least 5 colonies are picked from the agar plates with an inoculating loop and aseptically transferred to a culture tube containing 3 mL of Mueller-Hinton Broth (supplemented with divalent cations to required levels based on Manufacturers' specification). The broth culture is grown for 3-5 hours at 37° C. with shaking at 200 rpm. Meanwhile, 2-fold serial dilutions of test compounds are conducted in a 96 well plate with a final volume of 75 μL per well at 2-fold the final desired concentration. After the dilution plates are set up the growing cultures are then diluted in a cuvette containing MH II broth and the optical density is measured at 600 nm. Inocula are diluted such that 75 μL of this culture in Mueller-Hinton Broth results in a starting bacterial concentration of 5×10^5 CFU/mL when added to the dilution plates. The plates are incubated 16-20 hours at 37° C. The MIC is read visually as the lowest concentration well with no bacterial growth.
(§2) Representative results are shown in Tables 3, 4, and 5 where A represents an MIC>32 μg/mL, B represents an MIC between 8 and 32 μg/mL inclusive, C represents an MIC between 1 and 4 μg/mL inclusive, and D represents an MIC of <1 μg/mL. NT=Not Tested.

[2] = tested on: clinical isolate P. aeruginosa PA 8; assay: broth microdilution MIC assay, P. aeruginosa PA 8; conditions: Pseudomonas aeruginosa; Table 3; P. aeruginosa PA8
Experimental: as §1, §2

[3] = tested on: P. aeruginosa ATCC 27853 (wild-type/QC strain); assay: broth microdilution MIC assay, P. aeruginosa ATCC 27853; conditions: Pseudomonas aeruginosa, ATCC27853; Table 3; P. aeruginosa 27853; read-out: P. aeruginosa 27853 MIC
Experimental: as §1, §2

[4] = tested on: S. aureus ATCC 33591 (methicillin-resistant); assay: broth microdilution MIC assay, S. aureus ATCC 33591; conditions: Staphylococcus aureus, ATCC 33591 / MRSA; Table 3; S. aureus 33591 (MRSA); read-out: S. aureus 33591 (MRSA) MIC
Experimental: as §1, §2

Compound | MIC [1] [µg/mL] | MIC [2] [µg/mL] | MIC [3] [µg/mL] | MIC [4] [µg/mL]
C[C@@H](O)[C@H]1C(=O)N2C(C(=O)O)=C(S[C@@H]3CCN(C4CCC(NCCCB(O)O)CC4)C3)[C@H](C)[C@H]12 (stereo partly drawn) [Example 3, (4R,5S,6S)-3-(((R)-1-(4-((3-boronopropyl)amino)cyclohexyl)pyrrolidin-3-yl)thio)-6-((R)-1-hydroxyethyl)-4-methyl-7-oxo-1-azabicyclo[3.2.0]hept-2-ene-2-carboxylic acid] | < 1 | 8 to 32 | 8 to 32 | 8 to 32
C[C@@H](O)[C@H]1C(=O)N2C(C(=O)O)=C(S[C@@H]3CCN(C[C@H]4CC[C@H](CN)CC4)C3)[C@H](C)[C@H]12 [Example 17, (4R,5S,6S)-3-(((R)-1-(((1r,4R)-4-(aminomethyl)cyclohexyl)methyl)pyrrolidin-3-yl)thio)-6-((R)-1-hydroxyethyl)-4-methyl-7-oxo-1-azabicyclo[3.2.0]hept-2-ene-2-carboxylic acid] | < 1 | 1 to 4 | 1 to 4 | 8 to 32
CNC[C@H]1CC[C@H](CN2CC[C@@H](SC3=C(C(=O)O)N4C(=O)[C@H]([C@@H](C)O)[C@H]4[C@H]3C)C2)CC1 [Example 18, (4R,5S,6S)-6-((R)-1-hydroxyethyl)-4-methyl-3-(((R)-1-(((1r,4R)-4-((methylamino)methyl)cyclohexyl)methyl)pyrrolidin-3-yl)thio)-7-oxo-1-azabicyclo[3.2.0]hept-2-ene-2-carboxylic acid] | < 1 | 1 to 4 | 1 to 4 | 8 to 32
C[C@@H](O)[C@H]1C(=O)N2C(C(=O)O)=C(S[C@@H]3CCN(CCN4CCNCC4)C3)[C@H](C)[C@H]12 [Example 20, (4R,5S,6S)-6-((R)-1-hydroxyethyl)-4-methyl-7-oxo-3-(((R)-1-(2-(piperazin-1-yl)ethyl)pyrrolidin-3-yl)thio)-1-azabicyclo[3.2.0]hept-2-ene-2-carboxylic acid] | < 1 | 1 to 4 | 1 to 4 | 8 to 32
CN[C@H]1CC[C@H](CN2CC[C@@H](SC3=C(C(=O)O)N4C(=O)[C@H]([C@@H](C)O)[C@H]4[C@H]3C)C2)CC1 [Example 21, (4R,5S,6S)-6-((R)-1-hydroxyethyl)-4-methyl-3-(((R)-1-(((1r,4R)-4-(methylamino)cyclohexyl)methyl)pyrrolidin-3-yl)thio)-7-oxo-1-azabicyclo[3.2.0]hept-2-ene-2-carboxylic acid] | < 1 | 1 to 4 | 1 to 4 | 8 to 32
C[C@@H](O)[C@H]1C(=O)N2C(C(=O)O)=C(S[C@@H]3CCN([C@H]4CC[C@@H](N)CC4)C3)[C@H](C)[C@H]12 [Example 23, (4R,5S,6S)-3-(((R)-1-((1r,4R)-4-aminocyclohexyl)pyrrolidin-3-yl)thio)-6-((R)-1-hydroxyethyl)-4-methyl-7-oxo-1-azabicyclo[3.2.0]hept-2-ene-2-carboxylic acid] | < 1 | 1 to 4 | 1 to 4 | 8 to 32
CC(C1CCNCC1)N1CC[C@@H](SC2=C(C(=O)O)N3C(=O)[C@H]([C@@H](C)O)[C@H]3[C@H]2C)C1 (stereo partly drawn) [Example 25, (4R,5S,6S)-6-((R)-1-hydroxyethyl)-4-methyl-7-oxo-3-(((3R)-1-(1-(piperidin-4-yl)ethyl)pyrrolidin-3-yl)thio)-1-azabicyclo[3.2.0]hept-2-ene-2-carboxylic acid] | < 1 | 1 to 4 | 8 to 32 | 8 to 32

Next, values leading:

MIC [1] [µg/mL] | MIC [2] [µg/mL] | MIC [3] [µg/mL] | MIC [4] [µg/mL] | Compound
< 1 | 1 to 4 | 1 to 4 | > 32 | C[C@@H](O)[C@H]1C(=O)N2C(C(=O)O)=C(S[C@@H]3CCN(CC4CCN(CCN)CC4)C3)[C@H](C)[C@H]12 [Example 26, (4R,5S,6S)-3-(((R)-1-((1-(2-aminoethyl)piperidin-4-yl)methyl)pyrrolidin-3-yl)thio)-6-((R)-1-hydroxyethyl)-4-methyl-7-oxo-1-azabicyclo[3.2.0]hept-2-ene-2-carboxylic acid]
< 1 | 1 to 4 | 1 to 4 | 8 to 32 | C[C@@H](O)[C@H]1C(=O)N2C(C(=O)O)=C(S[C@@H]3CCN(C4CCN(CCN)CC4)C3)[C@H](C)[C@H]12 [Example 27, (4R,5S,6S)-3-(((R)-1-(1-(2-aminoethyl)piperidin-4-yl)pyrrolidin-3-yl)thio)-6-((R)-1-hydroxyethyl)-4-methyl-7-oxo-1-azabicyclo[3.2.0]hept-2-ene-2-carboxylic acid]
< 1 | 1 to 4 | 8 to 32 | 8 to 32 | CC1CC(CN2CC[C@@H](SC3=C(C(=O)O)N4C(=O)[C@H]([C@@H](C)O)[C@H]4[C@H]3C)C2)CCN1 (stereo partly drawn) [Example 28, (4R,5S,6S)-6-((R)-1-hydroxyethyl)-4-methyl-3-(((3R)-1-((2-methylpiperidin-4-yl)methyl)pyrrolidin-3-yl)thio)-7-oxo-1-azabicyclo[3.2.0]hept-2-ene-2-carboxylic acid]
< 1 | 1 to 4 | 8 to 32 | 8 to 32 | CNCc1ccc(CN2CC[C@@H](SC3=C(C(=O)O)N4C(=O)[C@H]([C@@H](C)O)[C@H]4[C@H]3C)C2)cn1 [Example 29, (4R,5S,6S)-6-((R)-1-hydroxyethyl)-4-methyl-3-(((R)-1-((6-((methylamino)methyl)pyridin-3-yl)methyl)pyrrolidin-3-yl)thio)-7-oxo-1-azabicyclo[3.2.0]hept-2-ene-2-carboxylic acid]
< 1 | 1 to 4 | 8 to 32 | 8 to 32 | C[C@@H](O)[C@H]1C(=O)N2C(C(=O)O)=C(S[C@@H]3CCN(CC4CCNC(CN)C4)C3)[C@H](C)[C@H]12 (stereo partly drawn) [Example 30, (4R,5S,6S)-3-(((3R)-1-((2-(aminomethyl)piperidin-4-yl)methyl)pyrrolidin-3-yl)thio)-6-((R)-1-hydroxyethyl)-4-methyl-7-oxo-1-azabicyclo[3.2.0]hept-2-ene-2-carboxylic acid]
< 1 | 8 to 32 | 8 to 32 | 1 to 4 | C[C@@H](O)[C@H]1C(=O)N2C(C(=O)O)=C(S[C@@H]3CCN(Cc4ccc(CN)c(CN)c4)C3)[C@H](C)[C@H]12 [Example 31, (4R,5S,6S)-3-(((R)-1-(3,4-bis(aminomethyl)benzyl)pyrrolidin-3-yl)thio)-6-((R)-1-hydroxyethyl)-4-methyl-7-oxo-1-azabicyclo[3.2.0]hept-2-ene-2-carboxylic acid]
8 to 32 | 8 to 32 | 8 to 32 | 8 to 32 | C[C@@H](O)[C@H]1C(=O)N2C(C(=O)O)=C(S[C@@H]3CCN(CC4CNCCN4S(C)(=O)=O)C3)[C@H](C)[C@H]12 (stereo partly drawn) [Example 32, (4R,5S,6S)-6-((R)-1-hydroxyethyl)-4-methyl-3-(((3R)-1-((1-(methylsulfonyl)piperazin-2-yl)methyl)pyrrolidin-3-yl)thio)-7-oxo-1-azabicyclo[3.2.0]hept-2-ene-2-carboxylic acid]
< 1 | 1 to 4 | 1 to 4 | 8 to 32 | C[C@@H](O)[C@H]1C(=O)N2C(C(=O)[O-])=C(S[C@@H]3CC[N+](C)(CC4CCNCC4)C3)[C@H](C)[C@H]12 (stereo partly drawn) [Example 33, (4R,5S,6S)-6-((R)-1-hydroxyethyl)-4-methyl-3-(((3R)-1-methyl-1-(piperidin-4-ylmethyl)pyrrolidin-1-ium-3-yl)thio)-7-oxo-1-azabicyclo[3.2.0]hept-2-ene-2-carboxylate]
